Data taken from patent US11358863B2, “Method and composition of humidity-controlled generation of chlorine dioxide in polymers and superabsorbent hydrogels” (priority 2017, dated 2022).

Legend:
Format in all cases: cell-based
[1] = test system: spores of Bacillus cereus; experiment: Microbiological validation of aqueous ClO2 using Bacillus cereus spores, serial dilutions and plate-counting on Nutrient Agar; conditions: dilutions 1-10^-6, NA plates 18 hours at 37° C.
[2] = test system: Bacillus atrophaeus spores; experiment: Clamshell package with chlorite/HMS absorbent pad in humid desiccator: ethylene oxide gas sterility test strip; conditions: gaseous ClO2 about 25-50 ppm after 24 hours, 89% RH, 35° C.
From the text: (§1) We tested a clamshell package made of plastic (commonly PLA or polyethylene terephthalate (PET)), typical of the packaging used to contain fresh produce or berries as sold in supermarkets, convenience stores, and other grocery stores. These clamshell packages have vent holes that allow the free-flow exchange of gases between the interior of the package and its surrounding environment.
(§2) A beaker with two ClO2 indicator test strips (high range, 0-500 ppm), one Geobacillus stearothermophilus 7953 autoclave sterility test strip and one Bacillus atrophaeus ethylene oxide gas sterility test strip, was placed inside the clamshell package. A piece of blue material comprising non-woven textiles and superabsorbent hydrogel, characteristic of a common disposable diaper, was cut into a 3×1 inch rectangle. Dry sodium chlorite and dry HMS were placed on spatially separate regions of the material. The blue absorbent pad was sprayed with a small amount of water, and then folded in half. The entire clamshell package (containing the indicator strips, microbial test strips, and blue pad with reactive reagents) was placed inside a desiccator charged with […] The entire desiccator assembly, containing the salt solution in the bottom and the clamshell package above the solution on a perforated platform, was placed inside an incubator at 35° C., which re-equilibrated and increased RH to 89%. […]

[3] = test system: Geobacillus stearothermophilus 7953 spores; experiment: Clamshell package with chlorite/HMS absorbent pad in humid desiccator: autoclave sterility test strip; conditions: gaseous ClO2 about 25-50 ppm after 24 hours, 89% RH, 35° C.
From the text: as §1
as §2, with “a” for “a desiccator charged with”

[4] = test system: mold on cotton-based parachute sleeve; experiment: Mold growth on moldy cotton parachute sleeve sample on Potato Dextrose Agar after ClO2 treatment; conditions: 10 mL of 100 ppm ClO2 solution, mixed intermittently over 20 minutes, quenched; stored at 30° C. for 5 days
Method: Dry reagents of HMS and chlorite ion were added to distilled de-ionized water to produce chlorine dioxide. A cotton-based parachute sleeve that is characteristically used to hold and release parachutes during jumps and to store folded parachutes after jumps was chosen for use. […] Approximately 1×1 in^2 was cut from a parachute sleeve and placed using sterile forceps into a Petri dish of sterile Potato Dextrose Agar (PDA) with a few drops of sterile water. […] A 1×1 in^2 sample was removed from the moldy dish using a sterile technique and placed in a new sterile Petri dish of PDA with sterile water. A second 1×1 in^2 sample was placed in a plastic pouch with 10 mL of 100 ppm ClO2 solution and mixed in a paddle-blender for 2 minutes intermittently over a 20 minute period. At 20 min, reductant was added to quench any excess ClO2, and the sample was placed on a fresh Petri dish of PDA. Both samples were stored at 30° C. for 5 days.

## [O][Cl+][O-] [ClO2, chlorine dioxide]
[1]; 10 microliter inoculum on 1×1 in^2 fabric, 100 ppm ClO2 solution, paddle-blender 15 min, quenched
  growth of B. cereus from inoculated protective garment fabric: no discernible growth
[1]; B. cereus spore inoculum in 10 mL of 100 ppm aqueous ClO2 solution, paddle-stomacher 15 min, quenched with reductant
  colonies on NA plates (plate-counts): no discernible colonies
[2]
  microbial growth of B. atrophaeus indicator test strip: negative for microbial growth
[3]
  microbial growth of G. stearothermophilus indicator test strip: negative for microbial growth
[4]
  mold growth on cotton sleeve sample and PDA: no signs of mold growth
